Data taken from patent publication US20050090652A1, “Highly homogenous serum albumin as chiral selector” (priority 2002, published 2005).
Like-named read-outs stand apart in the source and are kept apart here.

Experiments:
[1] = target: T1, recombinant human serum albumin (rHA) immobilised on silica (Homo sapiens, UniProt P02768); conditions: pH 7.5
[2] = target: albumin (Homo sapiens, UniProt P02768); conditions: binding to albumin; Peters et al.; Kragh-Hansen 1990; cited from earlier work
[3] = target: T1, recombinant human serum albumin (rHA) immobilised on silica; test: Enantioselective HPLC analysis by the rHA-based column; conditions: 1-propanol/phosphate buffer (pH 7.5) 15/85 (v/v), 0.6 ml/min flow rate

Sequence of albumin (P02768 25-609, species assumed): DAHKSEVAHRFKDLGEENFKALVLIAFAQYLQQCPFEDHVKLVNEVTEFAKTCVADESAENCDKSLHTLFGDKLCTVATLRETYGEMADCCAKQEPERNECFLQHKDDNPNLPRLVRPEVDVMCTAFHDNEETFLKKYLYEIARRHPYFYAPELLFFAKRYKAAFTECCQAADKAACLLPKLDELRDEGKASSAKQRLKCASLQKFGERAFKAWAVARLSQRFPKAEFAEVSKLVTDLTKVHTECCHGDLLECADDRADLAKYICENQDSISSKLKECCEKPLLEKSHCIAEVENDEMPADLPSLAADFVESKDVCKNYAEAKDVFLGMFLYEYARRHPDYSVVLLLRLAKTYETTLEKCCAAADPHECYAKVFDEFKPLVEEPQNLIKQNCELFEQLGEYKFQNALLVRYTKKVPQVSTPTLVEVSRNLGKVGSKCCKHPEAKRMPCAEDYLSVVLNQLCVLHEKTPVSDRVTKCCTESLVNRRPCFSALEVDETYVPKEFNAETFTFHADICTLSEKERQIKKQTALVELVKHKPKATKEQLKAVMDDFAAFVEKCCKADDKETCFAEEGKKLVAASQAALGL
T1 sequence (P02768 25-609): as the sequence (P02768 25-609, species assumed) above

Compound	affinity relative to the other enantiomer (antipode) [2] [fold]	further results
CC(C)CC(NC(=O)c1ccccc1)C(=O)O (racemic) [N-benzoyl-DL-leucine]	–	enantioselectivity (α) [1]: 2.8
O=C(O)CCC(=O)O[C@@H]1N=C(c2ccccc2)c2cc(Cl)ccc2NC1=O [(S)-oxazepam-hemisuccinate]	35	–
N[C@@H](Cc1c[nH]c2ccccc12)C(=O)O [L-tryptophan]	100	–
rac-lorazepam hemisuccinate	–	enantioselectivity (α) [3]: 5.3
